{"source": "DBAASP", "experiment_in_all_cases": "≥ marks a high value that may be exact or a test limit, other limits are often not marked, values filed in µg/mL are converted to µM", "key": {"[1]": {"test_system": "Listeria monocytogenes EGD"}, "[2]": {"test_system": "Candida albicans 820"}, "[3]": {"test_system": "Escherichia coli ML-35p"}, "[4]": {"test_system": "Klebsiella pneumoniae ESBL 63575"}, "[5]": {"test_system": "Enterococcus faecalis f43559"}, "[6]": {"test_system": "Pseudomonas aeruginosa H1027"}, "[7]": {"test_system": "Stenotrophomonas maltophilia ATCC 13637"}, "[8]": {"test_system": "Enterococcus faecium mic80"}, "[9]": {"test_system": "Pseudomonas aeruginosa 9"}, "[10]": {"test_system": "Enterobacter cloacae 218R"}, "[11]": {"test_system": "Escherichia coli ESBL 63103"}, "[12]": {"test_system": "Klebsiella pneumoniae ESBL 61962"}, "[13]": {"test_system": "Enterococcus faecalis ATCC 29212"}, "[14]": {"test_system": "Pseudomonas aeruginosa H1030"}, "[15]": {"test_system": "Pseudomonas aeruginosa 198"}, "[16]": {"test_system": "Pseudomonas aeruginosa LES400"}, "[17]": {"test_system": "Enterococcus faecalis W61950"}, "[18]": {"test_system": "Enterococcus faecium t62764"}, "[19]": {"test_system": "Pseudomonas aeruginosa 213"}, "[20]": {"test_system": "Escherichia coli ESBL 64771"}, "[21]": {"test_system": "Pseudomonas aeruginosa PAO1 H103"}, "[22]": {"test_system": "Staphylococcus aureus C623"}, "[23]": {"test_system": "Staphylococcus aureus ATCC 25923"}, "[24]": {"test_system": "Staphylococcus aureus PTCC 1431"}, "[25]": {"test_system": "Micrococcus luteus PTCC 1625"}, "[26]": {"test_system": "Klebsiella pneumoniae PTCC 1388"}, "[27]": {"test_system": "Escherichia coli HP101BA 7601c"}, "[28]": {"test_system": "Escherichia coli ATCC 25726"}, "[29]": {"test_system": "Candida albicans ATCC 90028"}, "[30]": {"test_system": "Batrachochytrium dendrobatidis JEL-197"}, "[31]": {"test_system": "Escherichia coli ATCC 25922"}, "[32]": {"test_system": "Staphylococcus aureus NCTC 8325"}, "[33]": {"test_system": "Enterobacter cloacae NHTCC 53001"}, "[34]": {"test_system": "Pseudomonas aeruginosa ATCC 27853"}, "[35]": {"test_system": "Klebsiella pneumoniae KK3 9904"}, "[36]": {"test_system": "Streptococcus mutans"}}, "note": "Where “and” joins values, the source holds several entries; their conditions need not be identical. Identical values can stand only once."}
{"smiles": "CC[C@H](C)[C@@H]1NC(=O)[C@H](CCCN=C(N)N)NC(=O)[C@@H]2CSSC[C@@H]3NC(=O)[C@H](C(C)C)NC(=O)CNC(=O)[C@H](Cc4ccccc4)NC(=O)[C@H](Cc4ccc(O)cc4)NC(=O)[C@H](C(C)C)NC(=O)[C@H](CCC(=O)O)NC(=O)[C@H](CC(C)C)NC(=O)CNC(=O)[C@H](CC(C)C)NC(=O)[C@H](CSSC[C@H](NC(=O)[C@H](CCCN=C(N)N)NC(=O)[C@H](CCCN=C(N)N)NC(=O)[C@H](C)NC(=O)[C@H](CC(C)C)NC(=O)[C@H](CCCN=C(N)N)NC(=O)CNC(=O)[C@H](Cc4cnc[nH]4)NC(=O)[C@H](CC(C)C)NC(=O)[C@H](Cc4ccccc4)NC3=O)C(=O)N[C@H](C(=O)N[C@@H](CCCN=C(N)N)C(=O)O)CSSC[C@H](NC(=O)[C@@H](NC(=O)[C@@H](N)CCCN=C(N)N)[C@@H](C)CC)C(=O)N[C@@H](CCCN=C(N)N)C(=O)N2)NC(=O)[C@H](CCCN=C(N)N)NC(=O)CNC1=O", "note": "[RICRCRIGRCLGLEVYFGVCFLHGRLARRCCR]", "values": [{"measurement": "MIC", "setting": "[1]", "value": "2.1 µM and 1.9 µM"}, {"measurement": "MIC", "setting": "[2]", "value": "4 µM and 7.5 µM"}, {"measurement": "MIC", "setting": "[3]", "value": "1.7 µM and 2.9 µM"}]}
{"smiles": "NCCCC[C@H](NC(=O)[C@H](CCCCN)NC(=O)[C@H](Cc1c[nH]c2ccccc12)NC(=O)[C@H](Cc1c[nH]c2ccccc12)NC(=O)[C@H](CCCN=C(N)N)NC(=O)[C@H](CCCCN)NC(=O)[C@@H](N)Cc1c[nH]c2ccccc12)C(=O)N[C@@H](Cc1c[nH]c2ccccc12)C(=O)N[C@@H](CCCN=C(N)N)C(=O)O", "note": "[WKRWWKKWR]", "values": [{"measurement": "MIC", "setting": "[4]", "value": 21.2, "unit": "µM"}, {"measurement": "MIC", "setting": "[5]", "value": "≥ 87", "unit": "µM"}, {"measurement": "MIC", "setting": "[6]", "value": 2.74, "unit": "µM"}, {"measurement": "MIC", "setting": "[7]", "value": 0.685, "unit": "µM"}, {"measurement": "MIC", "setting": "[8]", "value": 11, "unit": "µM"}, {"measurement": "MIC", "setting": "[9]", "value": 21.2, "unit": "µM"}, {"measurement": "MIC", "setting": "[10]", "value": "≥ 43.2", "unit": "µM"}, {"measurement": "MIC", "setting": "[11]", "value": 11, "unit": "µM"}, {"measurement": "MIC", "setting": "[12]", "value": "≥ 87", "unit": "µM"}, {"measurement": "MIC", "setting": "[13]", "value": 43.2, "unit": "µM"}, {"measurement": "MIC", "setting": "[14]", "value": 21.2, "unit": "µM"}, {"measurement": "MIC", "setting": "[15]", "value": 21.2, "unit": "µM"}, {"measurement": "MIC", "setting": "[16]", "value": 11, "unit": "µM"}, {"measurement": "MIC", "setting": "[17]", "value": "≥ 87", "unit": "µM"}, {"measurement": "MIC", "setting": "[18]", "value": 2.74, "unit": "µM"}, {"measurement": "MIC", "setting": "[19]", "value": "≥ 43.2", "unit": "µM"}, {"measurement": "MIC", "setting": "[20]", "value": 1.37, "unit": "µM"}, {"measurement": "MIC", "setting": "[21]", "value": 11, "unit": "µM"}, {"measurement": "MIC", "setting": "[22]", "value": 2.74, "unit": "µM"}, {"measurement": "MIC", "setting": "[23]", "value": 2.74, "unit": "µM"}]}
{"smiles": "CC(C)C[C@H](NC(=O)CNC(=O)[C@H](C)NC(=O)[C@@H](N)CCCN=C(N)N)C(=O)N[C@@H](CCCCN)C(=O)N[C@@H](Cc1ccccc1)C(=O)N1CCC[C@H]1C(=O)N[C@H](C(=O)NCC(=O)N[C@@H](CCCN=C(N)N)C(=O)N[C@H](C(=O)N[C@@H](Cc1cnc[nH]1)C(=O)N[C@@H](CCCN=C(N)N)C(=O)N[C@@H](CC(C)C)C(=O)N[C@@H](CC(C)C)C(=O)N[C@@H](CCCN=C(N)N)C(=O)O)C(C)C)C(C)C", "note": "[RAGLKFPVGRVHRLLR]", "values": [{"measurement": "MIC", "setting": "[24]", "value": 8.1, "unit": "µM"}, {"measurement": "MIC", "setting": "[25]", "value": 6, "unit": "µM"}, {"measurement": "MIC", "setting": "[26]", "value": 10.6, "unit": "µM"}, {"measurement": "MIC", "setting": "[27]", "value": 9.6, "unit": "µM"}]}
{"smiles": "CC[C@H](C)[C@H](NC(=O)CN)C(=O)N[C@@H](Cc1ccccc1)C(=O)N[C@@H](CO)C(=O)N[C@@H](C)C(=O)N[C@@H](CC(C)C)C(=O)N[C@@H](C)C(=O)N[C@@H](C)C(=O)NCC(=O)N[C@H](C(=O)N[C@@H](CCCCN)C(=O)N[C@@H](CC(C)C)C(=O)N[C@@H](CC(C)C)C(=O)NCC(=O)N[C@@H](CC(N)=O)C(=O)N[C@H](C(=O)N[C@@H](CC(C)C)C(=O)N[C@@H](Cc1ccccc1)C(=O)N[C@@H](CCCCN)C(=O)N[C@@H](CCSC)C(=O)N[C@@H](C)C(=O)NCC(=O)N[C@@H](CCCCN)C(=O)N[C@@H](C)C(=O)NCC(=O)N[C@@H](C)C(=O)N[C@@H](CCC(=O)O)C(=O)N[C@@H](Cc1cnc[nH]1)C(=O)N[C@@H](CC(C)C)C(=O)N[C@@H](C)C(=O)N[C@H]1CSSC[C@@H](C(=O)O)NC(=O)[C@H](CCC(N)=O)NC(=O)[C@H](CC(N)=O)NC(=O)[C@H]([C@@H](C)O)NC(=O)[C@H](C)NC(=O)[C@H](CCCCN)NC1=O)[C@@H](C)O)C(C)C", "note": "[GIFSALAAGVKLLGNTLFKMAGKAGAEHLACKATNQC]", "values": [{"measurement": "MIC", "setting": "[28]", "value": 25, "unit": "µM"}, {"measurement": "MIC", "setting": "[29]", "value": "≥ 50", "unit": "µM"}, {"measurement": "MIC", "setting": "[30]", "value": 12.5, "unit": "µM"}, {"measurement": "MIC", "setting": "[23]", "value": 12.5, "unit": "µM"}]}
{"smiles": "CC[C@H](C)[C@H](NC(=O)[C@H](Cc1cnc[nH]1)NC(=O)[C@H](CCCCN)NC(=O)CNC(=O)[C@H](C)NC(=O)[C@@H](NC(=O)[C@H](CCCCN)NC(=O)[C@H](CC(C)C)NC(=O)[C@@H](NC(=O)CNC(=O)[C@H](CCCCN)NC(=O)[C@H](CC(C)C)NC(=O)[C@@H](NC(=O)[C@H](CO)NC(=O)[C@H](CCSC)NC(=O)[C@H](CC(C)C)NC(=O)CN)C(C)C)C(C)C)[C@@H](C)O)C(=O)N[C@@H](Cc1ccccc1)C(=O)N[C@@H](CCCCN)C(=O)N[C@@H](CC(N)=O)C(=O)N[C@H](C(=O)NCC(=O)NCC(=O)N[C@@H](CO)C(=O)N[C@@H](CC(C)C)C(=O)N[C@@H](CC(C)C)C(=O)N[C@@H](CC(=O)O)C(=O)N[C@@H](CCC(N)=O)C(=O)N[C@@H](C)C(=O)N[C@@H](CCCCN)C(=O)N[C@H]1CSSC[C@@H](C(=O)O)NC(=O)[C@H](CCC(N)=O)NC(=O)CNC(=O)[C@H]([C@@H](C)O)NC(=O)[C@H]([C@@H](C)CC)NC(=O)[C@H](CCCCN)NC1=O)C(C)C", "note": "[GLMSVLKGVLKTAGKHIFKNVGGSLLDQAKCKITGQC]", "values": [{"measurement": "MIC", "setting": "[31]", "value": 3, "unit": "µM"}, {"measurement": "MIC", "setting": "[32]", "value": 25, "unit": "µM"}, {"measurement": "MIC", "setting": "[29]", "value": "≥ 100", "unit": "µM"}, {"measurement": "MIC", "setting": "[33]", "value": 6, "unit": "µM"}, {"measurement": "MIC", "setting": "[34]", "value": 3, "unit": "µM"}, {"measurement": "MIC", "setting": "[35]", "value": 6, "unit": "µM"}]}
{"smiles": "CC[C@H](C)[C@H](NC(=O)[C@H](CCC(=O)O)NC(=O)[C@H](CCCCN)NC(=O)[C@@H](NC(=O)[C@H](CC(N)=O)NC(=O)[C@H](CCC(=O)O)NC(=O)[C@H](C)NC(=O)[C@H](CC(C)C)NC(=O)[C@@H](N)CCCCN)C(C)C)C(=O)N[C@@H](CC(C)C)C(=O)N[C@@H](CCCN=C(N)N)C(=O)O", "note": "[KLAENVKEILR]", "values": [{"measurement": "MIC", "setting": "[36]", "value": "≥ 190", "unit": "µM"}]}
